Experiments:
human PDHK2 (hPDHK2) = target: T1, human PDHK2 (hPDHK2) (Homo sapiens, UniProt Q15119); assay: Inhibitory action of PDHK2 activity in vitro (residual PDH activity after kinase reaction); type: biochemical
T1 construct: made in house; host or cells: Escherichia coli BL21(DE3), pET17b
Protocol: The inhibitory action of PDHK activity was assessed indirectly by measuring the residual PDH activity after kinase reaction in the presence of a test compound.
In the case of human PDHK2 (hPDHK2, Genbank Accession No. BC040478.1), modified hPDHK2 cDNA wherein FLAG-Tag sequence was added to the N terminus of hPDHK2 cDNA clone (pReceiver-M01/PDK2-GeneCopoeia) was prepared by PCR and cloned into a vector (pET17b-Novagen). The recombinant construct was transformed into Escherichia coli (DH5α-TOYOBO). The recombinant clones were identified, and plasmid DNA was isolated and subjected to the DNA sequence analysis. One clone which had the expected nucleic acid sequence was selected for expression work.
For expression of hPDHK2 activity, Escherichia coli strain BL21(DE3) cells (Novagen) were transformed with the pET17b vector containing modified hPDHK2 cDNA. The Escherichia coli were grown to an optical density 0.6 ([…]) at 30° C. Protein expression was induced by the addition of 500 μmol/L isopropyl-β-thiogalactopyranoside. The Escherichia coli were cultured at 30° C. for 5 hr and harvested by centrifugation. Resuspension of the Escherichia coli paste was disrupted by a microfluidizer. FLAG-Tagged protein was purified using FLAG affinity gel. The gel was washed with 20 mmol/L HEPES-NaOH, 500 mmol/L sodium chloride, 1% ethylene glycol, and 0.1% Pluronic F-68 (pH 8.0), and the binding protein was eluted with 20 mmol/L HEPES-NaOH, 100 μg/mL FLAG peptide, 500 mmol/L sodium chloride, 1% ethylene glycol, and 0.1% Pluronic F-68 (pH 8.0). The eluted fractions containing FLAG-Tagged protein were pooled, dialyzed against 20 mmol/L HEPES-NaOH, 150 mmol/L sodium chloride, 0.5 mmol/L EDTA, 1% ethylene glycol, and 0.1% Pluronic F-68 (pH 8.0), and preserved at −80° C.
0.05 U/mL PDH and 0.8 μg/mL hPDHK2 were mixed in a buffer (50 mmol/L 3-morpholinopropanesulfonic acid (pH 7.0), 20 mmol/L dipotassium hydrogen phosphate, 60 mmol/L potassium chloride, 2 mmol/L magnesium chloride, 0.4 mmol/L EDTA, and 0.2% Pluronic F-68, 2 mmol/L dithiothreitol), and the mixture was incubated at 4° C. overnight to obtain a PDH/hPDHK2 complex. The test compounds were diluted with DMSO. […] DMSO (1.5 μL) was added to control wells instead of the test compound. […] The mixture was incubated at room temperature for 90 min, and the residual PDH activity was measured. The absorbance at 340 nm before and after PDH reaction was measured using a microplate reader to detect NADH produced by the PDH reaction. The hPDHK2 inhibition rate (%) of the test compound was calculated from the formula [{(PDH activity of test compound−PDH activity of control)/PDH activity of blank−PDH activity of control)}×100].

tissue PDH activity = assay: Ex vivo PDH activation assay (liver and epididymal adipose tissue after oral administration); type: in vivo, Sprague-Dawley rats; details: 3 mg/kg, rat, mean ± standard deviation
Protocol: The action of test compound on tissue PDH activity was evaluated. NADH production was detected via p-iodonitrotetrazolium violet (INT)-coupled system to measure PDH activity.
Normal male Sprague-Dawley rats were randomly allocated to the vehicle group and the test compound groups. The vehicle (0.5% aqueous methylcellulose solution, 5 mL/kg) or the test compound was orally administered to the rats. At 5 or 20 hr after administration, the rats were anesthetized with an intraperitoneal injection of sodium pentobarbital (60 mg/kg), and liver slices and epididymal adipose tissues were collected.
To the liver slices were rapidly added 9 volumes of ice-cold homogenization buffer (0.25 mol/L sucrose, 5 mmol/L tris(hydroxymethyl)aminomethane hydrochloride (pH 7.5), 2 mmol/L EDTA), and the mixtures were homogenized using a Polytron homogenizer. The homogenates were centrifuged at 600×g, 4° C. for 10 min to obtain the supernatant. The supernatants (1 mL) were centrifuged at 16,000×g, 4° C. for 10 min to collect the precipitates. The precipitates were washed by resuspension in the homogenization buffer (1 mL) and centrifuged in the same manner. The precipitates were frozen with liquid nitrogen and stored at −80° C. as the liver mitochondrial fraction.
To the adipose tissues were rapidly added 3 volumes of an ice-cold homogenization buffer, and the mixtures were homogenized using a Polytron homogenizer. The homogenates were centrifuged at 600×g, 4° C. for 10 min to obtain the supernatant. The supernatants were centrifuged at 16,000×g, 4° C. for 10 min to collect the precipitates. The precipitates were washed by resuspension in the homogenization buffer (1 mL) and centrifuged in the same manner. The precipitates were frozen with liquid nitrogen and stored at −80° C. as the adipose tissue mitochondrial fraction.
The mitochondrial fractions were thawed and suspended with the sample buffer (0.25 mol/L sucrose, 20 mmol/L tris(hydroxymethyl)aminomethane hydrochloride (pH 7.5), 50 mmol/L potassium chloride, and 1 mL/L 4-(1,1,3,3-tetramethylbutyl)phenyl-polyethylene glycol (Triton X-100)). Active PDH activity (PDHa activity) and total PDH activity (PDHt activity) were measured to evaluate the PDH activity. For the measurement of the PDHt activity, equal amounts of the mitochondrial suspension and the activation buffer (0.25 mol/L sucrose, 20 mmol/L tris(hydroxymethyl)aminomethane hydrochloride (pH 7.5), 50 mmol/L potassium chloride, 1 mL/L Triton X-100, 4 mmol/L calcium chloride, 40 mmol/L magnesium chloride, 10 mmol/L sodium dichloroacetate) were mixed, and the mixtures were incubated at 37° C. for 10 min. Forty microliters of the mitochondrial suspensions diluted with a sample buffer were added to a 96-well microplate for activity measurement and blank measurement. Then 180 μL of the reaction mixture (0.056 mmol/L potassium phosphate buffer (pH 7.5), 5.6 mmol/L DL-carnitine, 2.8 mmol/L NAD, 0.22 mmol/L thiamin pyrophosphate, 0.11 mmol/L Coenzyme A, 1.1 mL/L Triton X-100, 1.1 mmol/L magnesium chloride, 1.1 g/L bovine serum albumin, 0.67 mmol/L INT, 7.2 μmol/L phenazine methosulfate, 28 mmol/L sodium oxamate) was added to each well, and then 20 μL of 50 mmol/L sodium pyruvate for activity measurement or water for blank measurement were added. The mixtures were incubated at room temperature under shading. The absorbances at 500-750 nm, which were attributable to reduction of INT, the final electron acceptor, were measured using a microplate reader over time and the changes in the absorbance were calculated. The PDH activity was calculated by subtraction of the change in absorbance of the blank well from that of the activity measurement well. The percentage of the PDHa activity to the PDHt activity was calculated and taken as an index of the PDH activation.

[1] = adipose tissue, 5 hr after oral administration
[2] = adipose tissue, 20 hr after oral administration
[3] = liver, 5 hr after oral administration
[4] = liver, 20 hr after oral administration

| IC50 (human PDHK2 (hPDHK2)) | Compound | PDHa activity (% PDHt activity) (tissue PDH activity; [1]) | PDHa activity (% PDHt activity) (tissue PDH activity; [2]) | PDHa activity (% PDHt activity) (tissue PDH activity; [3]) | PDHa activity (% PDHt activity) (tissue PDH activity; [4]) |
| --- | --- | --- | --- | --- | --- |
| 9.7 nM | CC(C)(O)COc1cc(-c2cnn(CC(C)(C)O)c2)c2c(c1)[C@@](O)(C(F)(F)F)c1ccccc1-2 [compound (2), (9R)-2-(2-hydroxy-2-methylpropoxy)-4-[1-(2-hydroxy-2-methylpropyl)-1H-pyrazol-4-yl]-9-(trifluoromethyl)-9H-fluoren-9-ol] | 58 ± 10 % PDHt activity | 36 ± 7 % PDHt activity | 67 ± 9 % PDHt activity | 16 ± 9 % PDHt activity |
| 9.2 nM | C[C@H](O)COc1cc(-c2cnn(CC(C)(C)O)c2)c2c(c1)[C@@](O)(C(F)(F)F)c1ccccc1-2 [compound (1), (9R)-4-[1-(2-hydroxy-2-methylpropyl)-1H-pyrazol-4-yl]-2-((2S)-2-hydroxypropoxy)-9-(trifluoromethyl)-9H-fluoren-9-ol] | 64 ± 5 % PDHt activity | 56 ± 6 % PDHt activity | 60 ± 8 % PDHt activity | 13 ± 2 % PDHt activity |

Second part, the compound before the results:

| Compound | IC50 (human PDHK2 (hPDHK2)) | PDHa activity (% PDHt activity) (tissue PDH activity; [1]) | PDHa activity (% PDHt activity) (tissue PDH activity; [2]) | PDHa activity (% PDHt activity) (tissue PDH activity; [3]) | PDHa activity (% PDHt activity) (tissue PDH activity; [4]) |
| --- | --- | --- | --- | --- | --- |
| NC(=O)Cn1cc(-c2cc(OCCC34CC5CC(CC(O)(C5)C3)C4)cc3c2-c2ccccc2[C@]3(O)C(F)(F)F)cn1 [compound (A), 2-(4-{(9R)-9-Hydroxy-2-[2-(3-hydroxyadamantan-1-yl)ethoxy]-9-(trifluoromethyl)-9H-fluoren-4-yl}-1H-pyrazol-1-yl)acetamide, reference compound] |  | 32 ± 14 % PDHt activity | 24 ± 7 % PDHt activity | 35 ± 6 % PDHt activity | 16 ± 10 % PDHt activity |
| CC(C)(O)CCCOc1cc(-c2cnn(CC(C)(C)O)c2)c2c(c1)[C@@](O)(C(F)(F)F)c1ccccc1-2 [compound (4), (9R)-2-(4-hydroxy-4-methylpentyloxy)-4-[1-(2-hydroxy-2-methylpropyl)-1H-pyrazol-4-yl]-9-(trifluoromethyl)-9H-fluoren-9-ol] | 6.6 nM | 62 ± 13 % PDHt activity |  | 68 ± 11 % PDHt activity |  |
| Cn1cc(-c2cc(OCC(C)(C)O)cc3c2-c2ccccc2[C@]3(O)C(F)(F)F)cn1 [compound (B), (9R)-2-(2-Hydroxy-2-methylpropoxy)-4-(1-methyl-1H-pyrazol-4-yl)-9-(trifluoromethyl)-9H-fluoren-9-ol, reference compound] |  | 59 ± 5 % PDHt activity | 30 ± 4 % PDHt activity | 43 ± 7 % PDHt activity | 10 ± 3 % PDHt activity |

Reference: US20150025120A1, “PYRAZOLE-ALCOHOL COMPOUNDS AND PHARMACEUTICAL USE THEREOF” (JAPAN TOBACCO INC., priority 2013, published 2015)
